Reference: patent publication US9968635B2, “Treatment of skin and soft tissue infection with nitric oxide” (priority 2012, dated 2018)

Assays:
[1] = tested on: micro-capillary blood flow to skin; test: Laser Doppler study with closed Hilltop chamber on forearm, 10,000 ppm NO (Example 5); type: in vivo, human; settings: applied to the skin at 1/10% in alcohol
Excerpt: The formulation used in these studies contained nitric oxide dispersed in a lipid matrix. […] Nitric oxide is a very rapid acting molecule, and these studies used a system that employed laser Doppler with a covered chamber. The formulation was placed into the chamber and then attached to the skin by an adhesive layer on the covering. This provided a stable measuring device as determined by multiple normal evaluations of the capillary blood flow without treatment of nitric oxide.
A known positive control, methyl nicotinate, was applied to the skin at a concentration of 1/10% in alcohol. […] The vascular dynamics are such that when the blood vessels dilate physical parameters follow Bernoulli's law. […] The laser Doppler device accurately measured these parameters.
In these studies, the participants were healthy females aged 30 to 55 years. They were in good health as determined by the medical history and were not taking any prescription medications. All study participants read and signed the informed consent statement prior to any study procedures being performed. […]
A Moor Instruments DRT4 Laser Doppler Blood Flow Monitor (Devon, England) was used in these studies. The laser Doppler technique measured blood flow in the microcapillaries of the skin that are close to the skin surface and the blood flow in underlying arterioles and venules that help to regulate skin temperature. […]

[2] = tested on: capillary circulation of the skin; test: Laser Doppler study of creams in five human subjects (Example 7); type: in vivo; settings: positive control formulation containing 0.1% methyl nicotinate
Excerpt: This example illustrates delivery of nitric oxide formulations to five human subjects, using procedures and formulations similar to those discussed in Example 5. Each person served as their own control for the testing. A Moor Instruments Laser Doppler was used to determine circulation. […] The formulations used produce positive, almost immediate results when applied to the skin which, in these studies, was manifested by vasodilatation of the cutaneous vascular system. For each subject, the following creams were applied: a negative control formulation (containing no NO), 0.010 gram of a 10,000 ppm NO formulation, 0.020 gram of a 10,000 ppm NO formulation, and a positive control formulation containing 0.1% methyl nicotinate. The formulations were prepared using procedures similar to those discussed in Example 1.

[3] = Weight gain of carriers on bubbling nitric oxide gas; type: physicochemical; settings: NO gas bubbled 40 hr, 25 °C
Method: This example illustrates one technique for preparing a composition in accordance with one embodiment of the invention. An accurate amount of a carrier (HNC 167-62) (see below) was introduced into a system. The carrier weight used in these experiments was approximately 250 g and the vessel size was 500 ml. The vessel was equipped with a mechanical stirrer, gas inlet, and gas outlet and was previously purged with argon for about an hour. The temperature of the carrier was kept at about 25-30° C. NO gas regulated at 5 psi (1 psi is about 6,900 Pa) and was then introduced at a controlled rate of about 1 bubble/s with continuous stirring. […] After 6 hours, the weight of the carrier had increased by 0.15%, by 12 hours by 0.25%, and by 24 hours by 0.56%. These increases in weight were believed to be significant considering the relative small molecular weight of NO versus the carrier. […] The carrier also can solidify upon cooling if the carrier is initially a solid at lower temperature.
Each carrier was taken in a 500 mL three necked flask equipped with a mechanical stirrer, gas inlet and a gas outlet. The system was purged with argon for one hour at room temperature (25° C.). Then nitric oxide gas was bubbled into the system. Then, nitric oxide gas was bubbled through carrier for stipulated amount of time. The changes in weight and color were noted. […]

COC(=O)c1cccnc1 [methyl nicotinate]
laser Doppler response of positive control [1]: rapid response typical of the vasodilator | vasodilatation [2]: vasodilatation was observed

OCCCO [1,3-Propanediol, 1,3-propanediol]
% Wt. gain [3]: 0.09% | Wt. Gain [3]: 0.16 g
